Data as given in US20260234185A1, “ANTI-AGING COMPOSITION COMPRISING PEPTIDE COMPLEX AS ACTIVE INGREDIENT” (priority 2023, published 2026).
Where no end group is shown, it is not given here.

Columns and labels:
[1] = system: AMP-activated protein kinase (AMPK); assay: Western blot of AMPK phosphorylation in palmitate-treated adipocytes (insulin metabolic disorder); assay type: cell-based; settings: 3T3-L1 adipocytes, 25 μM palmitate 30 minutes; 0.2, 2, 20 μg/mL; 24 hours; Western blot (FIGS. 3a, 3b)
Method: An experiment was performed to determine whether the peptide complex prepared in Preparation Example 1 increases the phosphorylation of AMP-activated protein kinase (AMPK) and the expression level of SIRT1 (sirtuin1) protein in adipocytes in a state of insulin metabolic disorder induced by palmitate treatment.
When 3T3-L1 preadipocytes reached 80% confluence, they were seeded at 5×10^3 cells/well in a 96-well plate and used for the experiment. Two days after reaching confluence, the medium was replaced with a differentiation-inducing medium to induce the differentiation into adipocytes, and two days after the induction, the cells were cultured for 2 days in a medium containing 10% FBS and 10 μg/mL insulin, and then the medium was replaced with 10% FBS every 2 days until their differentiation into adipocytes. Once differentiation was complete, the medium was replaced with a serum-free medium and cultured for 4 hours to induce starvation. After 30 minutes of treatment with 25 μM palmitate, the peptide complexes were treated at concentrations of 0.2 μg/mL, 2 μg/mL, and 20 μg/mL and incubated for 24 hours. After dissolving by adding dissolution buffer, the proteins obtained by centrifugation at 4° C. and 12,000 rpm for 30 minutes were quantified using a BCA kit. […]

[2] = system: AMP-activated protein kinase (AMPK) gene; assay: RT-PCR of AMPK gene expression in palmitate-treated adipocytes; assay type: cell-based; settings: 3T3-L1 adipocytes, 25 μM palmitate 30 minutes; 0.2, 2, 20 μg/mL; 24 hours; RT-PCR vs palmitate control (PA) (FIGS. 4a, 4b)
Method: An experiment was performed to determine whether the peptide complex prepared in Preparation Example 1 increases the gene expression of longevity-related genes, FGF21, SIRT1, AMPK, and FOXO3A, in adipocytes in a state of insulin metabolic disorder induced by palmitate treatment.
When 3T3-L1 preadipocytes reached 80% confluence, they were seeded at 5×10^3 cells/well in a 96-well plate and used for the experiment. Two days after reaching confluence, the medium was replaced with differentiation-inducing medium to induce the differentiation into adipocytes, and two days after the induction, the medium was cultured for 2 days in a medium containing 10% FBS and 10 μg/mL insulin, and then the medium was replaced with 10% FBS every 2 days until their differentiation into adipocytes. After differentiation was complete, the medium was replaced with glucose-free medium, cultured for 16 hours, and then starvation was induced by culturing for 40 minutes in 100 μL KPPH buffer containing 2% BSA. After treating with 25 μM palmitate for 30 minutes, the peptide complexes were treated at concentrations of 0.2 μg/mL, 2 μg/mL, and 20 μg/mL, cultured for 24 hours, and RNA was extracted after 24 hours and RT-PCR was performed. […] Subsequently, the mRNA expression pattern was determined by agarose gel electrophoresis.

[3] = system: FGF21; assay: Western blot of FGF21 protein expression in myocytes; assay type: cell-based, mouse; settings: differentiated C2C12 myocytes; 0.2, 2, 20 μg/mL; 24 hours; Western blot (FIGS. 6a, 6b)
Method: An experiment was performed to determine whether the peptide complex increases the phosphorylation of AMPK and the expression of SIRT1 and FGF21 proteins in myocytes.
C2C12 cells, mouse-derived myoblasts, were cultured in DMEM medium containing 1% P/S and 2% BCS. When the cell confluency reached 70-80%, the cells were seeded in a 6-well culture plate. When the cell confluency in the 6-well culture plate reached 100%, the medium was replaced with differentiation medium (1% P/S, 2% horse serum), and thereafter, the differentiation medium (1% P/S, 2% horse serum) was replaced once every two days. Five days after the first replacement, the peptide complex was treated at concentrations of 0.2 μg/mL, 2 μg/mL, and 20 μg/mL and cultured for 24 hours. The group untreated with the peptide complex was used as the control. After dissolving by adding dissolution buffer thereto, the proteins obtained were centrifuged at 4° C. and 12,000 rpm for 30 minutes, and quantified using a BCA kit. The proteins were subjected to sodium dodecyl sulfate-polyacrylamide gel electrophoresis (SDS-PAGE) and then electrotransferred onto a membrane. The membrane with the proteins attached was blocked by treating it with 5% skim milk, and then the primary antibody was reacted overnight at 4° C. […]

peptide complex: prepared by mixing equal amounts of the peptide of SEQ ID NO: 1 (LKTRN) and the peptide of SEQ ID NO: 2 (KGSATGWMA) (also: mixture of two peptides)
increased: phosphorylation of AMPKα [1] | expression of AMP-activated protein kinase (AMPK) gene [2] | expression level of FGF21 protein [3]
